Laboratory results as given in patent US8802675B2, “Neuroprotective multifunctional compounds and pharmaceutical compositions comprising them” (priority 2009, dated 2014).

What was measured:
rat brain MAO-A = target: T1, rat brain MAO-A (Rattus norvegicus, UniProt P21396); experiment: biochemical; conditions: for IC50: IC50 MAO-A, rat brain homogenate in vitro, mean SEM, n=3 in triplicates
T1 construct: from tissue; host or cells: rat brain homogenate
T1 sequence (P21396 1-526): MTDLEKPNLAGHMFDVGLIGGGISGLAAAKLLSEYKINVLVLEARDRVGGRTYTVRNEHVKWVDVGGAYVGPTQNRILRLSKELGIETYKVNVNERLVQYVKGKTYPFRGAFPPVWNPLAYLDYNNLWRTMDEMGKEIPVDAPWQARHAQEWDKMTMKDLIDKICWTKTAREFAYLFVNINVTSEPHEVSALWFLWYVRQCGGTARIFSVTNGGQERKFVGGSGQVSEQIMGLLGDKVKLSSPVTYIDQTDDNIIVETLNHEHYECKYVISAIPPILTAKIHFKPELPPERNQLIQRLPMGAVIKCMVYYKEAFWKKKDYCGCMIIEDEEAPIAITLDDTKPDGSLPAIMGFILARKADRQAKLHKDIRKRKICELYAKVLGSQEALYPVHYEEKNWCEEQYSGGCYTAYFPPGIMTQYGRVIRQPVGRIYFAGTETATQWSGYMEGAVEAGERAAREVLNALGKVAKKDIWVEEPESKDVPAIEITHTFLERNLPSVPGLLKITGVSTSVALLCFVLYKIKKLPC
Protocol: (§1) Rats were decapitated and the brains were quickly taken into a pre-weighted ice-cold sucrose buffer (10 mM Tris-HCl buffer, pH 7.4, containing 0.32 M sucrose), and their weights were measured. The brains were homogenized at 0-4° C. in 0.32 M sucrose (one part tissue to 20 parts sucrose) in a Teflon glass homogenizer. The resultant homogenates were used to determine MAO activity. Protein concentration was determined with Bradford reagent at 595 nm, using bovine serum albumin as a standard.
(§2) The activity of MAO-A and MAO-B were determined by the adapted method of Tipton & Youdim (Tipton et al. 1983). Briefly, the multifunctional compound tested was added to a suitable dilution of the enzyme preparation (70 μg MAO-B and 150 μg MAO-A) in 0.05 M phosphate buffer (pH 7.4). The mixture was incubated together with 0.05 μM 1-deprenyl, a specific inhibitor of MAO-B (for determination of MAO-A activity in the presence of the test compound) or 0.05 μM clorgyline a specific inhibitor of MAO-A (for determination of MAO-B activity). […] The reaction was stopped with 2M ice-cold citric acid, and the radioactive metabolites (5-hydroxytryptaldehyde and phenylacetaldehyde) were extracted by addition of 2 ml of ethylacetate/toluene (1:1 vol/vol). The radioactivity contained in the organic phase was determined by liquid-scintillation counting in cpm units.
(§3) MAO-A and MAO-B activities were determined in rat brain homogenate in vitro following incubation with varying concentrations of the test compounds.
(§4) The results are the mean SEM, n=3 in triplicates.

rat brain MAO-B = target: T2, rat brain MAO-B (Rattus norvegicus, UniProt P19643); experiment: biochemical; conditions: for inhibition at 10 µM: read-out: percent inhibition MAO-B
T2 construct: from tissue; host or cells: rat brain homogenate
T2 sequence (P19643 1-520): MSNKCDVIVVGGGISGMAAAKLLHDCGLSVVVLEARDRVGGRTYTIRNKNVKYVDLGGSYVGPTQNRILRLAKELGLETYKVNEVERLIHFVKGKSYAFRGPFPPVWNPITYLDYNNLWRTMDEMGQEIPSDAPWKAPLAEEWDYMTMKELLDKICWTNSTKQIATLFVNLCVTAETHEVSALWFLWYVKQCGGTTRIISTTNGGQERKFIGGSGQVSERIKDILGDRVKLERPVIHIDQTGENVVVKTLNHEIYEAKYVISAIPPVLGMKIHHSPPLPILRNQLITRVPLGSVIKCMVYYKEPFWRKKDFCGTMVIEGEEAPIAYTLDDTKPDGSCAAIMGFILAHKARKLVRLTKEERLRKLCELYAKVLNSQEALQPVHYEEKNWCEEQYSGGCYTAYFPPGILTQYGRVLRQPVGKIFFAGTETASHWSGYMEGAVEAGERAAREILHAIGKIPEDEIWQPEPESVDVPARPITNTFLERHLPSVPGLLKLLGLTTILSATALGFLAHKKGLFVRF
Protocol: as §1, §2, §3, §4

[1] = target: T3, total cholinesterase (ChE) (Rattus norvegicus, UniProt P37136); experiment: Total cholinesterase inhibition in rat brain homogenates (Ellman); format: biochemical
T3 sequence (P37136 32-614): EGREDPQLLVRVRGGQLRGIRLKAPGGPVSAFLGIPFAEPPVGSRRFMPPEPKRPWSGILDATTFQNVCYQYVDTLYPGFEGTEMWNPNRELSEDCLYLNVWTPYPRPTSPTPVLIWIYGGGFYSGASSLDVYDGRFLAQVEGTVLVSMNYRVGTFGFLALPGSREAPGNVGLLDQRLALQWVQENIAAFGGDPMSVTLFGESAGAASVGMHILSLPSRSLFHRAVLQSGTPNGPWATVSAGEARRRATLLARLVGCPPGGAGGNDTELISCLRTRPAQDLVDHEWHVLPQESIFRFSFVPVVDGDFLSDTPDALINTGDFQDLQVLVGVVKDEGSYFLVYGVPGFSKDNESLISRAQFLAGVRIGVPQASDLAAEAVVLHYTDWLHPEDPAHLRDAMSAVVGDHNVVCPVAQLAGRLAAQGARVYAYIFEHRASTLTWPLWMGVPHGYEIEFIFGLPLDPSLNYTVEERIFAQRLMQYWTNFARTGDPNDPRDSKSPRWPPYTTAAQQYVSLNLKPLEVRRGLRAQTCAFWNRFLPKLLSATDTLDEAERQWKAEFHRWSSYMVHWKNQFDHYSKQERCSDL
Protocol: Cholinesterase activity was determined in rat brain homogenate following incubation with varying concentrations of the multifunctional pro-chelators of the invention (also referred to herein as “carbamates”).
Ellman's colorimetric method was adapted for determination of total cholinesterase (ChE) and butyrylcholinesterase (BuChE) activities in rat brain homogenates. Brain tissue from adult Wistar rats was homogenized at 2% w/v (or 10% w/v, for BuChE) in 0.1 M sodium phosphate buffer, pH 7.4, with added NaCl 58.5 g/l and Triton X-100 0.05% v/v. Aliquots of homogenate (20 μl) were incubated with the test compounds for designed time intervals in phosphate buffer pH 7.4, before addition of 5,5′-dithiobis(2-nitrobenzoic) acid and either 1 mM acetylthiocholine iodide or 10 mM butyrylthiocholine iodide (Sigma, St. Louis, Mo.). The reaction was run at 37° C. in a final volume of […] in 96-well microplates and was followed at 412 nm for 5 min with a plate reader. In every experiment, cholinesterase-independent (nonspecific) substrate hydrolysis was determined by including one experimental group treated with tacrine 30 μM. Appropriate tissue and reagent blanks were also included. Reaction velocities were determined in three or four replicates per condition; these were averaged and expressed as percent activity relative to control (solvent), after subtracting the rate of nonspecific hydrolysis.
The results are the mean SEM, n=3 in triplicates. ND—not determined.

[2] = system: ChE from rat brain homogenates; experiment: Time course of total ChE inhibition at 1 μM versus rivastigmine; format: biochemical; conditions: 1 μM, time course
Protocol: The new carbamates of the present invention are expected to act as rivastigmine and inhibit ChE activity. […] Enzyme activity was determined with Ellman's colorimetric method after addition of substrate, and the results are shown in FIGS. 8A-8B.

[3] = target: T4, rat brain cholinesterase (total ChE) (Rattus norvegicus, UniProt P37136); experiment: Kinetics of irreversible cholinesterase inhibition (Kitz-Wilson); format: biochemical
T4 construct: rows headed: Ki (dissociation constant for EI); other: rat brain total ChE; mean of 3-4 experiments; k+2 (carbamylation rate constant); other: from ki; rate of carba
T4 sequence (P37136 32-614): T3 sequence (P37136 32-614)
Protocol: To determine kinetic constants of irreversible inhibition, cholinesterase from rat brain homogenates was incubated with the multifunctional compounds of the invention for designed time intervals in phosphate buffer pH 7.4.
The residual cholinesterase activity was immediately measured with the Ellman's colorimetric method after addition of 5,5′-dithiobis(2-nitrobenzoic) acid and 1 mM acetylthiocholine iodide. The inhibition kinetics were assessed according to Kitz-Wilson equation:
[formula] wherein: E represents the enzyme; I represents the intact carbamate (inhibitor); EI is the initial reversible enzyme complex; E* is the carbamylated enzyme; Ki represents the dissociation constant for EI; k+2 is the carbamylation rate constant and k+3 is the decarbamylation rate constant; kapp is the pseudo-first-order inhibition rate constant; ki, the second-order rate inhibition constant, is approximated by k+2/Ki. Under experimental condition [I]>>[E0].
According to equation (2), the logarithm of the ratio of the residual cholinesterase activity (E) and the initial cholinesterase activity (E0) is plotted against the time of incubation. The slopes of the lines representing kapp were determined by linear regression.
The slopes of the lines represent the pseudo-first-order inhibition rate constant (kapp) determined from linear regression analysis. […] The carbamylation rate constant (k+2) was obtained from the y-intercept, and the dissociation constant ([…] was obtained from the slope of the line multiplied by k+2 as described in Materials and Methods.
From these lines, the values of kapp were calculated based on Equation (2) of the Kitz-Wilson equations (see Material and Methods). […] The carbamylation rate constant k+2 is a measure of inactivation of ChE.

[4] = Metal chelation assay (UV-vis spectra of metal complexes); format: physicochemical; conditions: ZnCl2, CuSO4, FeCl3 and FeSO4; 5% NH4Ac, pH=7
Description: Metal chelation, particularly iron chelation, is an important precondition for the antioxidative-function of the multi-functional compounds of the invention, because it is the excessive iron stores and iron-mediated generation of free radicals in the brain that are thought to be associated with neurodegenerative diseases. The novel strategy, according to the present invention, for the treatment of neurodegenerative diseases such as Alzheimer's disease is the design of pro-chelators that inhibit AChE with a concomitant release of the active chelators. This novel strategy has advantages over the current chelator strategy since it is capable not only of minimizing the potential toxicity associated with strong chelators such as the 8-hydroxyquinoline derivatives disclosed in WO 2004/041151, which might interfere with healthy metal metabolism in the brain, but it also offers multiple activities against AChE, Aβ aggregation, oxidative stress, and metal (Fe, Cu, Zn) dyshomeostasis in the brain. Therefore, a metal chelation assay was used to confirm that the new multifunctional pro-chelators that comprise an N,N-dialkylcarbamoyl moiety [N(RR′)CO—] linked to the oxygen at position 8 of quinoline would have little to no affinity for metal ions in their pro-drug form. When these pro-chelators bind to cholinesterase or AChE in the brain, the N,N-dialkylcarbamoyl moiety is dissociated, thus unmasking a free hydroxyl group at said position 8 of quinoline, turning the pro-chelators into active chelators, which passivate excess cerebral metal ions and protect neuronal cells against reactive oxygen species (ROS).
A spectrophotometric method was used for measurement of metal complexes of the multifunctional pro-chelators of the invention with metal ions selected from Zn^2+, Cu^2+, Fe^3+ and Fe^2+, and compared to the respective metal complexes of some known iron chelators disclosed in WO 2004/041151.
Thus, the metal chelating function of compound 13 and compound 23 as compared to M30 and HLA20, respectively, was measured by dissolving 0.1 mM or 0.2 mM of the test compounds in 5% NH4Ac, pH=7, in the presence and absence of 0.1 mM or 0.2 mM of the metal salts […], CuSO4, FeCl3 and FeSO4, and measuring the UV-vis spectra (Hewlett-Packard 8450A diode array spectrophotometer) of the various metal complexes formed. The results for M30 and compound 13 are shown in FIGS. 1A and 1B, respectively.

[5] = system: human SH-SY5Y neuroblastoma cells; experiment: MTT cell viability assay in SH-SY5Y cells; format: cell-based; conditions: MTT after 48 h incubation
Protocol: Cell culture. Human neuroblastoma SH-SY5Y cells were obtained from American Type Culture Collection (Rockville, Md., USA). Cells were routinely cultured in MEM-Eagle/F-12(HAM) (1:1), containing 10% FCS and a mixture of 2% sodium bicarbonate, 1% penicillin/streptomycin/nystatin and 1% sodium pyruvate. Cell cultures were incubated at 37° C. in a humid 5% CO2-95% air environment.
Twenty-four hours after attachment of the SH-SY5Y cells, the medium was replaced with DMEM containing 0.1% BSA. The test compounds were added to the cells after 1 h of incubation. After 24 h incubation, the cells were subjected to MTT test as previously described (Gassen et al., 1998). The absorption was determined in a Perkin-Elmer Dual Wavelength Eliza-Reader at λ=570/650 nm after automatic subtraction of background readings. The results are expressed as percentage of the untreated control.
The effect of the iron chelators M30 and HLA20 versus that of the pro-chelators 13 and 23, on viability of human SH-SY5Y cells was tested. Human SH-SY5Y neuroblastoma cells were plated in 100-mm culture dishes and cultured in DMEM (4,500 mg/l glucose), containing 10% FCS (fetal calf serum, Bet Haemek, Israel), and 1% of a mixture of penicillin/streptomycin/nystatin. When cells reached the required confluence, they were detached and re-cultured in microtiter plates (96 wells) pre-coated with collagen ([…]), in DMEM with 10% of fetal calf serum (0.5×10^4 cells/well). Cell viability was tested by the 3-(4,5-dimethylthiazol-2-yl)-2,5-diphenyltetrazolium (MTT) assays after 48 h incubation.

Row | SMILES | IC50 (rat brain MAO-A) [nM] | inhibition at 10 µM (rat brain MAO-B) [%] | IC50 ([1]; rat brain homogenates, mean SEM, n=3 in triplicates) [nM] | ChE inhibition compared with rivastigmine and other carbamates [2] | inhibition at 50 µM ([1]; read-out: percent inhibition Total ChE) [%] | potency in inhibiting ChE relative to rivastigmine ([3]; from ki) | kinact/KI ([3]; pH 7.4, read-out: ki (second-order rate inhibition constant, approximated by k+2/Ki)) [M⁻¹ s⁻¹] | binding of metal ions (shift of absorbance peak) [4] | cell viability ([5]; 10 μM) [%] | cell viability ([5]; 25 μM) [%] | cell viability ([5]; 50 μM) | inhibitory effect on MAO-A (rat brain MAO-A; rat brain homogenate) | inhibitory effect on MAO-B (rat brain MAO-B; rat brain homogenate)
1 | C#CCN(C)Cc1ccc(OC(=O)N(C)C)c2ncccc12 [Compound 2, 5-((methyl(propargyl)amino)methyl)quinolin-8-yl dimethylcarbamate] | < 100 | 67 | 520 | more potent than |  |  |  |  |  |  |  |  | 
2 | C#CCN(C)Cc1ccc(OC(=O)NCCCCCC)c2ncccc12 [Compound 4, 5-((methyl(propargyl)amino)methyl)quinolin-8-yl hexylcarbamate] | < 100 | 25 |  |  | 43 | half potent | 39 |  |  |  |  |  | 
3 | C#CCN1CCN(Cc2ccc(O)c3ncccc23)CC1 [HLA20, reference compound] |  |  |  |  |  |  |  | binds the respective metal ions | ≤ 75 | ≤ 75 | almost all the cells died | minor to none inhibitory effects | minor to none inhibitory effects
